This passage reports JAK2/JAK1 and IC50 results from US11304949B2, “Treatment of hidradenitis suppurativa using JAK inhibitors” (Incyte Corporation, priority 2018, dated 2022).

Structures are written as SMILES. Where only a bound is given, the exact number is not on record here.

As a reminder, the IC50 is the concentration that inhibits the measured activity by half. Low values mean higher potency, high ones lower potency.

Assay [1] deals with human JAK1 (a.a. 837-1142). The assay is described as follows: In vitro JAK kinase assay (HTRF), JAK1. As to conditions: IC50 ratio at 1 mM ATP. The format is biochemical. (In general: TR-FRET usually uses a lanthanide donor and a delayed reading to cut background.)
In assay [2] the target is human JAK1 (a.a. 837-1142) (Homo sapiens, UniProt P23458). The assay is described as follows: In vitro JAK kinase assay (HTRF), JAK1. Format: biochemical. Conditions: 1 mM ATP.

Regarding `C[C@H](NC(=O)c1cc(F)c(N2CC(CC#N)(n3cc(-c4ncnc5[nH]ccc45)cn3)C2)cc1F)C(F)(F)F` [Compound 16, 4-{3-(cyanomethyl)-3-[4-(7H-pyrrolo[2,3-d]pyrimidin-4-yl)-1H-pyrazol-1-yl]azetidin-1-yl}-2,5-difluoro-N-[(1S)-2,2,2-trifluoro-1-methylethyl]benzamide], in assay [1], the JAK2/JAK1 is >10. In addition, the IC50 in assay [2] is < 0.01 µM.
The like results for `N#CCC1(n2cc(-c3ncnc4[nH]ccc34)cn2)CN([C@H]2CC[C@@H](Oc3cc(CCO)nc(C(F)(F)F)n3)CC2)C1` [Compound 18, {1-(cis-4-{[6-(2-hydroxyethyl)-2-(trifluoromethyl)pyrimidin-4-yl]oxy}cyclohexyl)-3-[4-(7H-pyrrolo[2,3-d]pyrimidin-4-yl)-1H-pyrazol-1-yl]azetidin-3-yl}acetonitrile] were, in that order, >10 and < 0.01 µM.
Consider `CCNCc1cc(O[C@H]2CC[C@@H](N3CC(CC#N)(n4cc(-c5ncnc6[nH]ccc56)cn4)C3)CC2)nc(C(F)(F)F)c1` [Compound 19, {1-(cis-4-{[4-[(ethylamino)methyl]-6-(trifluoromethyl)pyridin-2-yl]oxy}cyclohexyl)-3-[4-(7H-pyrrolo[2,3-d]pyrimidin-4-yl)-1H-pyrazol-1-yl]azetidin-3-yl}acetonitrile], for which, in assay [1], the JAK2/JAK1 is >10. Moreover, the half-maximal inhibitory concentration (IC50) in assay [2] was < 0.01 µM.
The like results for `CC(C)(O)c1cc(O[C@H]2CC[C@@H](N3CC(CC#N)(n4cc(-c5ncnc6[nH]ccc56)cn4)C3)CC2)nc(C(F)(F)F)c1` [Compound 20, {1-(cis-4-{[4-(1-hydroxy-1-methylethyl)-6-(trifluoromethyl)pyridin-2-yl]oxy}cyclohexyl)-3-[4-(7H-pyrrolo[2,3-d]pyrimidin-4-yl)-1H-pyrazol-1-yl]azetidin-3-yl}acetonitrile] were, in that order, >10 and < 0.01 µM.
Regarding `N#CCC1(n2cc(-c3ncnc4[nH]ccc34)cn2)CN([C@H]2CC[C@@H](Oc3cc(CN4CC[C@@H](O)C4)cc(C(F)(F)F)n3)CC2)C1` [Compound 21, {1-(cis-4-{[4-{[(3R)-3-hydroxypyrrolidin-1-yl]methyl}-6-(trifluoromethyl)pyridin-2-yl]oxy}cyclohexyl)-3-[4-(7H-pyrrolo[2,3-d]pyrimidin-4-yl)-1H-pyrazol-1-yl]azetidin-3-yl}acetonitrile], the JAK2/JAK1 in assay [1] is reported as >10. The IC50 in assay [2] is < 0.01 µM.
The like results for `N#CCC1(n2cc(-c3ncnc4[nH]ccc34)cn2)CN([C@H]2CC[C@@H](Oc3cc(CN4CC[C@H](O)C4)cc(C(F)(F)F)n3)CC2)C1` [Compound 22, {1-(cis-4-{[4-{[(3S)-3-hydroxypyrrolidin-1-yl]methyl}-6-(trifluoromethyl)pyridin-2-yl]oxy}cyclohexyl)-3-[4-(7H-pyrrolo[2,3-d]pyrimidin-4-yl)-1H-pyrazol-1-yl]azetidin-3-yl}acetonitrile] were, in that order, >10 and < 0.01 µM.
The like results for `C[C@@H](CO)NCc1cc(OC2CCN([C@H]3C[C@](CC#N)(n4cc(-c5ncnc6[nH]ccc56)cn4)C3)CC2)nc(C(F)(F)F)c1` [Compound 23, {trans-3-(4-{[4-({[(1S)-2-hydroxy-1-methylethyl]amino}methyl)-6-(trifluoromethyl)pyridin-2-yl]oxy}piperidin-1-yl)-1-[4-(7H-pyrrolo[2,3-d]pyrimidin-4-yl)-1H-pyrazol-1-yl]cyclobutyl}acetonitrile] were, in that order, >10 and < 0.01 µM.
The like results for `C[C@@H](O)CNCc1cc(OC2CCN([C@H]3C[C@](CC#N)(n4cc(-c5ncnc6[nH]ccc56)cn4)C3)CC2)nc(C(F)(F)F)c1` [Compound 24, {trans-3-(4-{[4-({[(2R)-2-hydroxypropyl]amino}methyl)-6-(trifluoromethyl)pyridin-2-yl]oxy}piperidin-1-yl)-1-[4-(7H-pyrrolo[2,3-d]pyrimidin-4-yl)-1H-pyrazol-1-yl]cyclobutyl}acetonitrile] were, in that order, >10 and < 0.01 µM.
With `C[C@H](O)CNCc1cc(OC2CCN([C@H]3C[C@](CC#N)(n4cc(-c5ncnc6[nH]ccc56)cn4)C3)CC2)nc(C(F)(F)F)c1` [Compound 25, {trans-3-(4-{[4-({[(2S)-2-hydroxypropyl]amino}methyl)-6-(trifluoromethyl)pyridin-2-yl]oxy}piperidin-1-yl)-1-[4-(7H-pyrrolo[2,3-d]pyrimidin-4-yl)-1H-pyrazol-1-yl]cyclobutyl}acetonitrile], the JAK2/JAK1 in assay [1] is listed as >10. For the same compound, the half-maximal inhibitory concentration (IC50) in assay [2] was < 0.01 µM.
Regarding `N#CC[C@]1(n2cc(-c3ncnc4[nH]ccc34)cn2)C[C@H](N2CCC(Oc3cc(CCO)cc(C(F)(F)F)n3)CC2)C1` [Compound 26, {trans-3-(4-{[4-(2-hydroxyethyl)-6-(trifluoromethyl)pyridin-2-yl]oxy}piperidin-1-yl)-1-[4-(7H-pyrrolo[2,3-d]pyrimidin-4-yl)-1H-pyrazol-1-yl]cyclobutyl}acetonitrile], the JAK2/JAK1 in assay [1] is >10. The IC50 in assay [2] is < 0.01 µM.
